Data set [1] is classed as binding. The conditions noted are these: data not shown. How it is done: BPI Protein binds to LPS (data not shown). In these experiments, 4 µg of LPS/well was immobilized on 96 well plastic plates, then incubated with varying concentrations of BPI Protein, and developed with anti-BPI Protein polyclonal antisera. […]
For the next data set, the system named is mice. The data set can be described thus: Intranasal LPS challenge, TNFα in broncheoalveolar lavage fluid. The following applies: Polymyxin B 1.0µg (782 pmol) intranasal 20 minutes before LPS, BAL 1 hour after challenge. It is filed as in vivo. Also noted: TNFα level in Broncheoalveolar Lavage Fluid, individual mouse: unit not given here. As to the method: Normal anesthetized mice were challenged by the intranasal route with 10 ng/ml E. coli 0111:B4 LPS (results in Table 10). Twenty minutes before challenge, anesthetized mice were treated by the intranasal route with 50µl saline, BPI Protein or polymyxin B solution. At one hour after LPS challenge, mice were re-anesthetized, and 0.7 ml of saline containing 1% human serum albumin was added to the lungs via the trachea. The lungs were gently kneaded. A 0.5 ml volume broncheoalveolar lavage (BAL) fluid was aspirated, cells were pelleted by centrifugation, and the BAL sample was stored at -70°C. The TNFα level in the BAL fluid was determined by measuring cytotoxicity towards WEHI clone 13 mouse fibrosarcoma cells and is summarized in Table 10. Human rTNFα (Chiron) was used as the standard.

For another data set, the system named is human neutrophils. The data set can be described thus: Neutrophil stimulation by LPS: CR1/CR3 upregulation, flow cytometry. The class given is cell-based. The conditions noted are these: stoichiometric calculation. As to the method:
Venous blood was drawn from healthy volunteer donors into acid citrate dextrose anticoagulant and immediately placed on ice. Five parts blood were mixed with 1 part cold Macrodex, and allowed to settle for 1.5 - 2 hours at 4°C. Leukocyte-rich plasma was washed 1X in cold HBSS, then resuspended in HBSS and layered over Ficoll-Paque. If significant erythrocyte contamination was present, the granulocyte pellet was subjected to hypotonic lysis. The cells were washed 2X in HBSS and resuspended in HBSS + 2% autologous plasma to give a final granulocyte concentration of 1 X 10^6/ml in the incubation mixture.
Isolated neutrophils were kept on ice until incubated with and without stimuli at 37°C for 30 minutes. Following the incubation, cells were washed in a large volume of cold PBS + 0.05% Na Azide + 2% autologous plasma. […] Following a 30 minute incubation at 0°C and 2 more washes, the cells were analyzed by flow cytometry on a Becton Dickinson FACStar flow cytometer (Becton Dickinson, Mountain View, CA). […]
Human neutrophils may be stimulated both in vivo and in vitro by lipopolysaccharide. […] Using the Fluorescence Activated Cell Sorter (FACS), fluorescence intensity of freshly isolated human neutrophils was measured following stimulation with increasing doses of 0111:B4 LPS (data not shown). […]

Data set [2] concerns Human Monocytes. The data set can be described thus: LPS-induced TNF production by adherent peripheral blood mononuclear cells, ELISA. The class given is cell-based. How it is done:
Human peripheral blood mononuclear cells were isolated on Ficoll-Paque (Pharmacia) gradients, washed 2X in pyrogen-free HBSS (Hazelton), and resuspended at 5 X 10^6/ml in RPMI (Gibco) media without serum. Two hundred µl of this cell suspension was incubated in each well of flat-bottom 96-well tissue culture dishes (Costar) for 2 hours at 37°C. Nonadherent cells were removed by washing 2X with RPMI + 10% autologous heat inactivated serum. Adherent mononuclear cells were stimulated with E. coli 0111:B4 LPS which had been preincubated for 30 minutes at 37°C with buffer, BPI Protein or polymyxin B (Gibco; 7900 U/ml). Supernatants were harvested four hours after LPS mixtures were added. Secretion of TNFα was quantitated by ELISA (Endogen) (results at Table 9).
BPI Protein produced in soluble form at low temperature in E. coli and purified as described above in purification process A was tested for inhibition of endotoxin-mediated TNF induction by human adherent mononuclear cells. Blood collected in acid citrate dextrose containing vacutainer tubes (Becton Dickinson, Rutherford, NJ) was diluted in Hank's balanced salt solution (HBSS) minus Ca^+2 and Mg^+2. Mononuclear cells were separated using Ficol-Paque (Pharmacia Inc., Piscataway, N.J.), collected and washed three times in HBSS, and the proportion of monocytes was estimated by microscopic examination. Cells were brought up to an appropriate volume of RPMI 1640 with glutamine and antibiotics and without serum to give approximately 1 x 10^6 monocytes/ml. Cells were plated into 96 11 flat bottom tissue culture plates (Costar, Cambridge, MA), 200 µl/well, and incubated for two hours at 37°C in a humidified incubator with […]. Cells were then washed three times in warm RPMI 1640 without serum. After the last wash was aspirated, 200 µl/well RPMI 1640 with 10% autologous heat-inactivated serum was added. To each well was then added the 22µl of 10X solution of E. coli endotoxin preincubated in buffer, polymyxin B, or BPI Protein. Cells were incubated with the endotoxin mixture for four hours at 37°C, then the supernatants were collected and assayed for TNFα antigen by ELISA (Endogen, Inc., Boston, MA) (Figure 12) .

Data set [3] has as its system Human Monocytes. The description is as above. The following applies: Table 8; 1000 ng/ml Polymyxin B; 0.1 % w/v killed S. aureus. It is filed as cell-based.

The text below walks through data of patent EP0726944B1, “GL[…] NON-GLYCOSYLATED BACTERICIDAL/PE[…], AND METHODS FOR PRODUCING SAME” (INCYTE PHARMACEUTICALS, INC., priority 1993, dated 1995).

Several values for one entry are separate records, joined by “and”; a condition that tells them apart may be missing. Equal values may be shown once.

As for Polymyxin B, the “inhibition of BPI Protein binding to LPS” value in data set [1] was “inhibited”. Besides, the “TNFα level in Broncheoalveolar Lavage Fluid, Mean ± SD” value in the data set with mice amounted to 253 ± 251. In the data set on mice (mice 1-5), the “TNFα level in Broncheoalveolar Lavage Fluid, individual mouse” value is 74 and 50 and 132 and 370 and 640. Further, in the data set on human neutrophils, the “calculated amount of PMB required to inhibit 10 ng/ml of smooth LPS” value is on record as “approximately 0.67 nM”. The “TNF Produced in Response to LPS Preincubated with substance” value was found to be 0 pg/mL in the data set on Human Monocytes [2] (Table 5, 100 ng/ml, LPS 0 ng/ml); 0 pg/mL with Human Monocytes [2] (Table 5, 100 ng/ml, LPS 0.1 ng/ml); 96 pg/mL in the data set on Human Monocytes [2] (Table 5, 100 ng/ml, LPS 1 ng/ml); 2154 pg/mL in the data set on Human Monocytes [2] (Table 5, 100 ng/ml, LPS 10 ng/ml); 0 pg/mL with Human Monocytes [2] (Table 5, 500 ng/ml, LPS 0 ng/ml); 0 pg/mL in the data set with Human Monocytes [2] (Table 5, 500 ng/ml, LPS 0.1 ng/ml). For the same substance, the “TNF Produced in Response to LPS Preincubated with substance” value with Human Monocytes [2] (Table 5, 500 ng/ml, LPS 1 ng/ml) stood at 0 pg/mL; in the data set with Human Monocytes [2] (Table 5, 500 ng/ml, LPS 10 ng/ml), 1490 pg/mL; with Human Monocytes [2] (Table 7, 100 ng/ml PMB, LPS 0 ng/ml), 0 pg/mL; in the data set on Human Monocytes [2] (Table 7, 100 ng/ml PMB, LPS 0.1 ng/ml), 79 pg/mL; with Human Monocytes [2] (Table 7, 100 ng/ml PMB, LPS 1 ng/ml) it was 1207 pg/mL; in the data set on Human Monocytes [2] (Table 7, 100 ng/ml PMB, LPS 10 ng/ml), 1270 pg/mL. The “TNF Produced in Response to LPS Preincubated with substance” value amounted to 601 ± 257 pg/mL with Human Monocytes [2] (Table 8, 100 ng/ml Polymyxin B, LPS 10 (unit not given)); 1140 ± 73 pg/mL with Human Monocytes [2] (Table 8, 100 ng/ml Polymyxin B, LPS 100 (unit not given)); 1016 ± 20 pg/mL in the data set on Human Monocytes [2] (Table 8, 100 ng/ml Polymyxin B, LPS 1000 (unit not given)); 333 ± 18 pg/mL in the data set with Human Monocytes [2] (Table 8, 1000 ng/ml Polymyxin B, LPS 10 (unit not given)); 769 ± 101 pg/mL in the data set on Human Monocytes [2] (Table 8, 1000 ng/ml Polymyxin B, LPS 100 (unit not given)); 844 ± 144 pg/mL with Human Monocytes [2] (Table 8, 1000 ng/ml Polymyxin B, LPS 1000 (unit not given)). In addition, the “TNF Produced in Response to S. aureus Preincubated with substance” value was determined as 1541 ± 397 pg/mL in the data set with Human Monocytes [2] (Table 8, 100 ng/ml Polymyxin B, 0.1 % w/v killed S. aureus) and 1685 ± 121 pg/mL in the data set on Human Monocytes [3].
